Laboratory results: patent US9181218B2, “Compounds for improved stem cell differentiation into hepatocytes” (Hoffmann-La Roche Inc., priority 2013, dated 2015)

Tested on: interferon-stimulated genes (ISGs)
Assay: Microarray analysis of iCell Hepatocytes treated with the compound of example 1
Type: cell-based, Human
Text: iCell Hepatocytes treated with the compound of example 1 results in the up and down-regulation of a host of genes; including a kinetic effect on interferon-stimulated gene (ISGs) expression. See FIGS. 15-I and 15-II, 16-I and 16-II and 18 and Table 1.

Compound: O=C(NCc1cccc(F)c1)c1cccc2nc(-c3c(NC[C@@H](O)c4ccccc4)cc[nH]c3=O)[nH]c12 [Example 1, 2-[4-((S)-2-hydroxy-2-phenyl-ethylamino)-2-oxo-1,2-dihydro-pyridin-3-yl]-3H-benzoimidazole-4-carboxylic acid 3-fluoro-benzylamide]
- IFITM2 Raw Est Fold Change (24 HOUR): −1.90
- IFITM3 Raw Est Fold Change (24 HOUR): −1.36
- IFNGR1 Raw Est Fold Change (24 HOUR): −2.46
- IGHM Raw Est Fold Change (24 HOUR): −2.00
- IL6 Raw Est Fold Change (24 HOUR): −4.57
- IL6ST Raw Est Fold Change (24 HOUR): −1.25
- IL8 Raw Est Fold Change (24 HOUR): −4.32
- IL28RA Raw Est Fold Change (24 HOUR): 1.28
- IMPA2 Raw Est Fold Change (24 HOUR): −1.80
- IQGAP1 Raw Est Fold Change (24 HOUR): −1.70
- IRF3 Raw Est Fold Change (24 HOUR): 1.26
- IRF7 Raw Est Fold Change (24 HOUR): −3.86
- ISG20 Raw Est Fold Change (24 HOUR): −1.70
- ISGF3G Raw Est Fold Change (24 HOUR): −1.37
- ITGA2 Raw Est Fold Change (24 HOUR): −1.94
- JAK1 Raw Est Fold Change (24 HOUR): −1.17
- JAK2 Raw Est Fold Change (24 HOUR): −1.29
- JUNB Raw Est Fold Change (24 HOUR): −4.94
- KDELR2 Raw Est Fold Change (24 HOUR): −1.19
- KIAA0040 Raw Est Fold Change (24 HOUR): −5.04
- KPNB1 Raw Est Fold Change (24 HOUR): −1.12
- LEPR Raw Est Fold Change (24 HOUR): 2.89
- LIFR Raw Est Fold Change (24 HOUR): 1.33
- LRG1 Raw Est Fold Change (24 HOUR): −2.10
- LRP4 Raw Est Fold Change (24 HOUR): −2.17
- MAFB Raw Est Fold Change (24 HOUR): 2.60
- MAFF Raw Est Fold Change (24 HOUR): −2.09
- MAP3K8 Raw Est Fold Change (24 HOUR): −3.81
- MCL1 Raw Est Fold Change (24 HOUR): −1.16
- MLKL Raw Est Fold Change (24 HOUR): −1.78
- MSR1 Raw Est Fold Change (24 HOUR): −2.06
- MT1M Raw Est Fold Change (24 HOUR): −3.35
- MT1X Raw Est Fold Change (24 HOUR): −6.73
- MTHFD2L Raw Est Fold Change (24 HOUR): −2.20
- MTMR1 Raw Est Fold Change (24 HOUR): −1.14
- MYD88 Raw Est Fold Change (24 HOUR): 1.15
- MYT1 Raw Est Fold Change (24 HOUR): −3.59
- N4BP1 Raw Est Fold Change (24 HOUR): −1.40
- NFE2 Raw Est Fold Change (24 HOUR): −8.28
- NFKBIA Raw Est Fold Change (24 HOUR): −1.38
- NPAS2 Raw Est Fold Change (24 HOUR): −2.77
- NUB1 Raw Est Fold Change (24 HOUR): −1.47
- PADI2 Raw Est Fold Change (24 HOUR): 2.66
- PCGF2 Raw Est Fold Change (24 HOUR): 1.44
- PCMT1 Raw Est Fold Change (24 HOUR): −1.10
- PCTK2 Raw Est Fold Change (24 HOUR): −1.85
- PCTK3 Raw Est Fold Change (24 HOUR): 1.59
- PDGFA Raw Est Fold Change (24 HOUR): 1.23
- PDGFRL Raw Est Fold Change (24 HOUR): −1.86
- PDK1 Raw Est Fold Change (24 HOUR): −1.48
- PEX26 Raw Est Fold Change (24 HOUR): 1.29
- PIM3 Raw Est Fold Change (24 HOUR): −2.56
- PLOD2 Raw Est Fold Change (24 HOUR): −1.22
- PLSCR1 Raw Est Fold Change (24 HOUR): −3.34
- PNRC1 Raw Est Fold Change (24 HOUR): −2.42
- PPIC Raw Est Fold Change (24 HOUR): −1.23
- PPP1R3D Raw Est Fold Change (24 HOUR): −1.49
- PSCD1 Raw Est Fold Change (24 HOUR): −1.21
- PSMA2 Raw Est Fold Change (24 HOUR): 1.27
- PSMB9 Raw Est Fold Change (24 HOUR): −1.86
- PTEN Raw Est Fold Change (24 HOUR): 1.23
- RAB27A Raw Est Fold Change (24 HOUR): −2.33
- RANBP1 Raw Est Fold Change (24 HOUR): 1.13
- RBCK1 Raw Est Fold Change (24 HOUR): 1.34
- RBL1 Raw Est Fold Change (24 HOUR): −4.92
- RBMS1 Raw Est Fold Change (24 HOUR): −1.38
- RHOH Raw Est Fold Change (24 HOUR): 5.26
- RXRA Raw Est Fold Change (24 HOUR): 1.46
- SAT Raw Est Fold Change (24 HOUR): −1.57
- SDC2 Raw Est Fold Change (24 HOUR): 1.96
- SERPINB9 Raw Est Fold Change (24 HOUR): −1.86
- SFPQ Raw Est Fold Change (24 HOUR): −1.39
- SFTPC Raw Est Fold Change (24 HOUR): −1.66
- SLC15A2 Raw Est Fold Change (24 HOUR): −1.58
- SLC25A28 Raw Est Fold Change (24 HOUR): −1.54
- SLC25A30 Raw Est Fold Change (24 HOUR): 1.53
- SMAD3 Raw Est Fold Change (24 HOUR): −1.19
- SOAT2 Raw Est Fold Change (24 HOUR): 4.03
- SOCS1 Raw Est Fold Change (24 HOUR): −9.88
- SOCS3 Raw Est Fold Change (24 HOUR): −3.51
- SPTLC2 Raw Est Fold Change (24 HOUR): −10.08
- SQLE Raw Est Fold Change (24 HOUR): −1.98
- SQRDL Raw Est Fold Change (24 HOUR): −1.45
- SSBP3 Raw Est Fold Change (24 HOUR): 1.35
- STAT1 Raw Est Fold Change (24 HOUR): −2.14
- STEAP4 Raw Est Fold Change (24 HOUR): −65.16
- TAP1 Raw Est Fold Change (24 HOUR): −1.60
- TAP2 Raw Est Fold Change (24 HOUR): −1.54
- TBX3 Raw Est Fold Change (24 HOUR): 1.42
- TCF7L2 Raw Est Fold Change (24 HOUR): −1.29
- TEAD4 Raw Est Fold Change (24 HOUR): −2.33
- TFPI Raw Est Fold Change (24 HOUR): −1.38
- THBD Raw Est Fold Change (24 HOUR): −9.02
- THBS1 Raw Est Fold Change (24 HOUR): −1.44
- TMEM2 Raw Est Fold Change (24 HOUR): −1.35
- TMEM49 Raw Est Fold Change (24 HOUR): −2.07
- TMEM67 Raw Est Fold Change (24 HOUR): −4.34
- TNFSF13B Raw Est Fold Change (24 HOUR): 1.36
- TRIM14 Raw Est Fold Change (24 HOUR): 1.36
- TRIM26 Raw Est Fold Change (24 HOUR): 1.56
- TXNIP Raw Est Fold Change (24 HOUR): −1.37
- UBE2S Raw Est Fold Change (24 HOUR): −1.40
- USP12 Raw Est Fold Change (24 HOUR): −1.96
- USP25 Raw Est Fold Change (24 HOUR): −1.22
- VAT1 Raw Est Fold Change (24 HOUR): 1.21
- YWHAE Raw Est Fold Change (24 HOUR): −1.11
- ZFYVE26 Raw Est Fold Change (24 HOUR): 1.31
- ZNF24 Raw Est Fold Change (24 HOUR): −1.16
- ZNF295 Raw Est Fold Change (24 HOUR): −1.84
- ABHD5 Raw Est Fold Change (DAY 7): −2.05
- ACSL1 Raw Est Fold Change (DAY 7): 1.78
- ADM Raw Est Fold Change (DAY 7): −3.85
- AGXT Raw Est Fold Change (DAY 7): 2.54
- AHR Raw Est Fold Change (DAY 7): −2.08
- AKR1B1 Raw Est Fold Change (DAY 7): −3.52
- AKT3 Raw Est Fold Change (DAY 7): −5.29
- ALCAM Raw Est Fold Change (DAY 7): −1.46
- ALDH1A1 Raw Est Fold Change (DAY 7): 1.54
- AMPH Raw Est Fold Change (DAY 7): −21.01
- APOL6 Raw Est Fold Change (DAY 7): 1.36
- ARHGDIB Raw Est Fold Change (DAY 7): −3.40
